Results on 13 compounds are retold here after patent publication US9187486B2 (AMGEN INC., priority 2011, dated 2015).

Assay [1] deals with Pim-1 (Homo sapiens (Human), UniProt P11309). The assay can be described thus: Pim enzyme assay (HTRF, phosphorylation of biotinylated-BAD (S112) peptide), Pim-1. The following applies: full length recombinant Pim-1, biotinylated-BAD (S112) peptide, HTRF. It counts as biochemical. An excerpt:
(§1) Full-length human cDNAs encoding Pim-1 (MGC ID 3913552) or Pim-2 (IMAGE ID 5092935) were purchased from Invitrogen, Carlsbad, Calif. These cDNAs were used as templates in PCR reactions to produce full-length DNA clones of the PIMs. Oligonucleotide PCR primers for Pim-1 were 5′-[…]-3′ and 5′-[…]-3′. Oligonucleotide PCR primers for Pim-2 were 5′-[…]-3′ and 5′-[…]-3′. PCR products were digested with BclI and EcoRI for Pim-1 and BamHI and EcoRI for Pim-2 and ligated into a modified baculovirus transfer vector (pFastBac 1) cleaved with BamHI and EcoRI. For bacterial expression, the same cleaved PCR products encoding Pim-1 or Pim-2 were ligated into a modified E. coli expression vector pET28(a) cleaved with BamHI and EcoRI. Amino-terminal hexahistidine tags followed by a thrombin cleavage site were previously added to the vectors using standard methods of molecular biology. Recombinant baculoviruses expressing Pim-1 or Pim-2 were made using standard methods (Fastbac manual, Invitrogen, Carlsbad, Calif.). Infection of Sf9 cells was done at an m.o.i. of greater than 5 for 24-48 h. Cells were harvested by centrifugation and frozen at −80 C. For E. coli expression, cells carrying pET28-His6-Th-Pim-1 or pET28-His6-Th-Pim-2 were picked from a single colony and grown o/n in LB media. The o/n culture was used to inoculate a 2 liter flask with 500 mL media. This was grown o/n and used to inoculate 15-20 liters of Terrific Broth in a New Brunswick Scientific fermentor. The E. coli were grown at 37° C. to and OD600>1.6. The temperature was dropped to 18° C. and o/n expression was induced with 0.5 mM IPTG. Cells were harvested by centrifugation and frozen at −80° C.
(§2) The frozen cell pellets were thawed by stirring in chilled lysis buffer (0.05 M HEPES, pH 8.0, 0.25 M NaCl, 0.01 M 2-mercaptoethanol, 10% (w/v) glycerol, 0.5% (v/v) protease inhibitor cocktail (Sigma P-8340) at a ratio of 1 L/200 g cells until homogeneous. The thawed suspension was applied to a microfluidizer at 10,000 PSI to disrupt the cells and the whole lysates were clarified by centrifugation at 50,000×g for 90 min, 4° C. Imidazole was added to the clarified lysate to a final concentration of 2.5 mM and the lysate was mixed with 10 mL of Talon resin (Clontech) and the slurry rocked gently overnight at 4° C. The slurry was centrifuged at 1,000×g for 5 min, the supernatant decanted, and the resin suspended in 40 mL of lysis wash buffer (lysis buffer at 0.75 M NaCl). This step was repeated 3× and the resin was transferred to a 2.5 cm glass column. Ten column volumes of wash buffer (0.05 M HEPES, pH 8.0, 0.1 M NaCl, 0.01 M 2-mercaptoethanol, 10% (w/v) glycerol) were applied to the resin followed by 10 column volumes of elution buffer (0.05 M HEPES, pH 8.0, 0.25 M NaCl, 0.01 M 2-mercaptoethanol, 10% (w/v) glycerol, 0.1 M imidazole). Fractions were analyzed by SDS-PAGE and those containing the protein of interest were pooled and concentrated. The concentrated protein was applied to an Amersham Superdex 75 (XK 26/60) column equilibrated in 0.025 M Tris-HCl, pH 7.5, 0.1 M NaCl, 0.01 M 2-mercaptoethanol, 10% (w/v) glycerol. […] Fractions containing the monomeric protein of interest were pooled, concentrated to ˜2 mg/mL, and stored at −80° C.
(§3) The phosphorylation of biotinylated-BAD (S112) peptide by full length recombinant Pim-1, Pim-2, or Pim-3 protein was detected with streptavidin:Allophycocyanin (APC) conjugate and a europium (Eu) labeled antibody directed against phosphorylated-BAD (S112). Excitation of Eu by a high energy laser light (337 nm) leads to a transfer of energy to the APC molecule, and results in an emission at 665 nm. The fluorescence is directly proportional to the amount of phosphorylated BAD peptide present in the reaction.

Assay [2] addresses Pim-2 (Homo sapiens (Human), UniProt Q9P1W9). The assay can be described thus: Pim enzyme assay (HTRF, phosphorylation of biotinylated-BAD (S112) peptide), Pim-2. The following applies: full length recombinant Pim-2, biotinylated-BAD (S112) peptide, HTRF. It is filed as biochemical.
From the text: as §1, §2, §3
On the technique in general: In TR-FRET formats the signal depends on donor and acceptor labels being close together.

Setting [3] is: 96-well, read-out: Pim-1 IC50 IP.
The mark [4] stands for this setting: 96-well, read-out: Pim-2 IC50 IP.

pIC50: −log10 of the molar value. Where two headings read alike, the source gives them in different places.

Chain of Pim-1 (P11309 whole entry): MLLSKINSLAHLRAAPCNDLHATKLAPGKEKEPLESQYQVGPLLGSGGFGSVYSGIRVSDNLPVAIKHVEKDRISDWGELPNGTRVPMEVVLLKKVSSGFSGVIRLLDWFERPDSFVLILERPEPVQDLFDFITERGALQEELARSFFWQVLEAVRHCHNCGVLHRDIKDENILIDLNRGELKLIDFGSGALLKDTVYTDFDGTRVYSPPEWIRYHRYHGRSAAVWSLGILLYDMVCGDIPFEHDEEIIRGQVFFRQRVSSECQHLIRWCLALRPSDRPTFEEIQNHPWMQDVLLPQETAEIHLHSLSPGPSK
Chain of Pim-2 (Q9P1W9 whole entry): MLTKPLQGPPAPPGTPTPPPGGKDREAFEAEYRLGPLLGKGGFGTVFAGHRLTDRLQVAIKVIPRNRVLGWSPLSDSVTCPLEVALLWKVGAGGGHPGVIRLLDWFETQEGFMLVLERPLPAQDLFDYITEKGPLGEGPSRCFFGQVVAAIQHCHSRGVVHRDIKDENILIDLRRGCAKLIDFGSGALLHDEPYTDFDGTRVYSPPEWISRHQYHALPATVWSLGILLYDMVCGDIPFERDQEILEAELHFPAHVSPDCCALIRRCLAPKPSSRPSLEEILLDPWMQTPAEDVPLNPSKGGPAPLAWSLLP

Turning to `O[C@H]1CCCN(c2ccncc2Nc2ncc3ccc(-c4c(F)cccc4F)nn23)C1` [Example 19, (3S)-1-(3-((2-(2,6-difluorophenyl)imidazo[1,5-b]pyridazin-7-yl)amino)-4-pyridinyl)-3-piperidinol], the values for the pIC50 in assay [1] (read-out: Pim_1_IC50) and in assay [2] (read-out: Pim2_IC50) were 8.52 and 7.52, respectively.

Turning to `N[C@H]1CCCN(c2ccncc2Nc2nnc3cccnn23)C1` [Example 68, 2,2,2-trifluoroacetate], the values for the pIC50 in assay [1] (setting [3]) and in assay [2] (setting [4]) were 7.42 and 7.13, respectively.

As to `N[C@H]1CCCN(c2ccncc2Nc2nnc3ccc(-c4c(F)cccc4F)nn23)C1` [Example 67, (S)-N-(4-(3-aminopiperidin-1-yl)pyridin-3-yl)-6-(2,6-difluorophenyl)-[1,2,4]triazolo[4,3-b]pyridazin-3-amine 2,2,2-trifluoroacetate], the figures for the pIC50 in assay [1] (setting [3]) and in assay [2] (setting [4]) were 8.35 and 7.45, respectively.

Take `C[C@H]1CN(c2ccncc2Nc2ncc3ccc(-c4c(F)cccc4F)nn23)CCN1` [Example 58, (S)-2-(2,6-difluorophenyl)-N-(4-(3-methylpiperazin-1-yl)pyridin-3-yl)imidazo[1,5-b]pyridazin-7-amine bis(2,2,2-trifluoroacetate)]: the pIC50 was 7.93 in assay [1] (setting [3]) and 7.18 in assay [2] (setting [4]).

Turning to `N[C@H]1CCCN(c2cnccc2Nc2ncc3ccc(-c4c(F)cccc4F)nn23)C1` [Example 80, (S)-N-(3-(3-aminopiperidin-1-yl)pyridin-4-yl)-2-(2,6-difluorophenyl)imidazo[1,5-b]pyridazin-7-amine tetra(2,2,2-trifluoroacetate)], the pIC50 in assay [1] (setting [3]) and in assay [2] (setting [4]) was less than 6.00 each time.

With `Nc1cncc(-c2ccncc2Nc2ncc3ccc(-c4c(F)cccc4F)nn23)c1` [Example 29, N3′-(2-(2,6-difluorophenyl)imidazo[1,5-b]pyridazin-7-yl)-3,4′-bipyridine-3′,5-diamine], the pIC50 in assay [1] (read-out: Pim_1_IC50) was 6.69; in assay [2] (read-out: Pim2_IC50), less than 6.00.

Consider `N[C@H]1CCCN(c2ncncc2Nc2ncc3ccc(-c4ccccc4F)nn23)C1` [Example 14, (S)-N-(4-(3-aminopiperidin-1-yl)pyrimidin-5-yl)-2-(2-fluorophenyl)imidazo[1,5-b]pyridazin-7-amine], for which the pIC50 was 7.46 in assay [1] (read-out: Pim_1_IC50) and 6.80 in assay [2] (read-out: Pim2_IC50).

On to `O[C@@H]1CCCN(c2ccncc2Nc2ncc3ccc(-c4nccs4)nn23)C1` [Example 18, (3R)-1-(3-((2-(1,3-thiazol-2-yl)imidazo[1,5-b]pyridazin-7-yl)amino)-4-pyridinyl)-3-piperidinol], for which the pIC50 in assay [1] (read-out: Pim_1_IC50) was 7.00; in assay [2] (read-out: Pim2_IC50), less than 6.00.

For `Clc1ccccc1-c1ccc2cnc(Nc3cnccc3O[C@@H]3CCCNC3)n2n1` [Example 10, 2-(2-chlorophenyl)-N-(4-((3R)-3-piperidinyloxy)-3-pyridinyl)imidazo[1,5-b]pyridazin-7-amine bis(2,2,2-trifluoroacetate)], the pIC50 in assay [1] (read-out: Pim_1_IC50) is 6.39; in assay [2] (read-out: Pim2_IC50), less than 6.00.

Regarding `Clc1ccccc1-c1ccc2cnc(Nc3cnccc3N3CCNCC3)n2n1` [Example 5, 2-(2-chlorophenyl)-N-(4-(1-piperazinyl)-3-pyridinyl)imidazo[1,5-b]pyridazin-7-amine], the results for the pIC50 in assay [1] (read-out: Pim_1_IC50) and in assay [2] (read-out: Pim2_IC50) were 6.97 and 6.19, respectively.

With `N[C@@H]1CCCN(c2ccncc2Nc2ncc3ccc(-c4c(F)cccc4F)nn23)C1` [Example 69, (R)-N-(4-(3-aminopiperidin-1-yl)pyridin-3-yl)-2-(2,6-difluorophenyl)imidazo[1,5-b]pyridazin-7-amine], the pIC50 in assay [1] (setting [3]) is 8.12; in assay [2] (setting [4]) it was 7.45.

Consider `N[C@H]1CCCN(c2ccncc2Nc2ncc3ccc(Cl)nn23)C1` [Example 24, N-(4-((3S)-3-amino-1-piperidinyl)-3-pyridinyl)-2-chloroimidazo[1,5-b]pyridazin-7-amine], for which the pIC50 in assay [1] (read-out: Pim_1_IC50) was 7.60; in assay [2] (read-out: Pim2_IC50), 7.00.

Turning to `c1cc(N2CCNCC2)c(Nc2ncc3ccc(-c4nccs4)nn23)cn1` [Example 3, N-(4-(1-piperazinyl)-3-pyridinyl)-2-(1,3-thiazol-2-yl)imidazo[1,5-b]pyridazin-7-amine], the results for the pIC50 in assay [1] (read-out: Pim_1_IC50) and in assay [2] (read-out: Pim2_IC50) were 7.27 and 6.81, respectively.
